Experimental data reported in US20160024114A1, “MACROCYCLIC RIP2 KINASE INHIBITORS” (ONCODESIGN S.A, priority 2013, published 2016).

Molecular target: RIP2 recombinant protein (Homo sapiens, UniProt O43353)
Experiment: radiometric protein kinase assay (33PanQinase Activity Assay), in vitro peptide-based kinase assay
Format: biochemical
Settings: for remaining activity at 0.1 µM / remaining activity at 1 µM: 1 h; for remaining activity at 0.1 µM: compound at 0.1 μM; for remaining activity at 1 µM: compound at 1 μM; for IC50: ATP 3.0 μM, RIP2 15.7 nM, substrate RBER-Chktide
Procedure: The inhibition of RIP2 kinase was assessed using RIP2 recombinant protein in an in vitro peptide-based kinase assay.
A radiometric protein kinase assay (^33PanQinase® (^33PanQinase Activity Assay) is used for measuring the kinase activity. All assays are performed in 96-well FlashPlates™ from Perkin Elmer in a 50 μl reaction volume. The reaction cocktail is pipetted in 4 steps in the following order:
10 μl of non-radioactive ATP solution (in H2O)
25 μl of assay buffer/[γ-^33P]-ATP mixture
5 μl of test sample in 10% DMSO
10 μl of enzyme/substrate mixture
The assay for RIP2 contains 70 mM HEPES-NaOH pH 7.5, 3 mM MgCl2, 3 mM MnCl2, 3 μM Na-orthovanadate, 1.2 mM DTT, 50 μg/ml PEG20000, ATP (3.0 μM), [γ-^33P]-ATP (approx. 5×10^05 cpm per well), protein kinase RIP2 (15.7 nM) and substrate (RBER-Chktide), 2.0 μg/50 μl). The reaction cocktails were incubated at 30° C. for 60 minutes. The reaction was stopped with 50 μl of 2% (v/v) H3PO4, plates were aspirated and washed two times with 200 μl 0.9% (w/v) NaCl. Incorporation of ^33Pi (counting of “cpm”) was determined with a microplate scintillation counter.
The compounds are dissolved to 10 mM in DMSO. Where needed, solutions are sonicated in a bath sonicator.
Table 4 provides the pIC50 values and % Remaining activity values at two concentrations (1 μM and 0.1 μM) of the compounds according to the invention, obtained using the above mentioned kinase assay.

Sequence of RIP2 recombinant protein (O43353 whole entry): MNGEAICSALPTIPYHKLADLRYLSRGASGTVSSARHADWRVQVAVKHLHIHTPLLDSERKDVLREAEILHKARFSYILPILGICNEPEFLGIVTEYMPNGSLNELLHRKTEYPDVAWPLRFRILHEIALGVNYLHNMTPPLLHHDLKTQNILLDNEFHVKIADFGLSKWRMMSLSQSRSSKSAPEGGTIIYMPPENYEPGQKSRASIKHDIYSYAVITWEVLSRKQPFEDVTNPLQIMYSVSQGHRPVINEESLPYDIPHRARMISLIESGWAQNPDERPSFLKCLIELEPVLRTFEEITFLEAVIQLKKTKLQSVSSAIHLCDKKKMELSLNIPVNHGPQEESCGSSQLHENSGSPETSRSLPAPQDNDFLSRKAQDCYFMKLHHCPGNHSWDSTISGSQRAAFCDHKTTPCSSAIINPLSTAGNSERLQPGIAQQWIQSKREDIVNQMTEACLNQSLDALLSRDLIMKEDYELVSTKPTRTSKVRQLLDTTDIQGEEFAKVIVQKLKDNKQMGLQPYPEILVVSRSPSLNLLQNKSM

| Compound | remaining activity at 0.1 µM [%] | remaining activity at 1 µM [%] | IC50 [µM] |
| --- | --- | --- | --- |
| COCCC(=O)N1CCCN(C)c2cccc(c2)-c2cnn3ccc(nc23)NCC1 [Compound B19] | < 50 | < 50 | – |
| NC(=O)c1ccc2cc1OCC(=O)NCCCNc1ccn3ncc-2c3n1 [Compound B21] | < 50 | < 50 | < 0.1 |
| O=C(CN1CCOCC1)N1CCNc2ccn3ncc(c3n2)-c2cccc(c2)OCC1 [Compound B36] | < 50 | < 50 | < 0.1 |
| CN(C)CCN1CCN(C(=O)C2CC2)CCOc2cccc(c2)-c2cnn3ccc1nc23 [Compound B48] | < 50 | < 50 | < 0.1 |
| O=C1CCNc2ccn3ncc(c3n2)-c2cc(F)cc(c2)OCCN1 [Compound B74] | < 50 | < 50 | 0.1 to 1 |
| CN1CCN(C(=O)C2CC2)CCNc2ccn3ncc(c3n2)-c2cccc(c2)C1 [Compound B76] | > 50 | < 50 | 0.1 to 1 |

More lines, now with the values ahead:

| remaining activity at 0.1 µM [%] | remaining activity at 1 µM [%] | IC50 [µM] | Compound |
| --- | --- | --- | --- |
| < 50 | < 50 | < 0.1 | CCCCN1CCNc2ccn3ncc(c3n2)-c2cc(F)cc(c2)OCC1 [Compound F81] |
| < 50 | < 50 | < 0.1 | Fc1cc2cc(c1)-c1cnn3ccc(nc13)NCCN(C1CCOCC1)CCO2 [Compound F82] |
| < 50 | < 50 | < 0.1 | CCC(C)N1CCNc2ccn3ncc(c3n2)-c2cc(F)cc(c2)OCC1 (stereo not shown) [Compound F83] |
| < 50 | < 50 | 0.1 to 1 | Fc1cc2cc(c1)-c1cnn3ccc(nc13)NCCN(C1CCC3(CC1)OCCO3)CCO2 [Compound F84] |
| < 50 | < 50 | < 0.1 | COCCN1CCCNc2ccn3ncc(c3n2)-c2cc(F)cc(c2)OCC1 [Compound F86] |
| < 50 | < 50 | < 0.1 | COCCN1CCCOc2cc(F)cc(c2)-c2cnn3ccc(nc23)NCC1 [Compound F87] |
| < 50 | < 50 | < 0.1 | COCCN1CCCNc2ccn3ncc(c3n2)-c2cc(Cl)cc(c2)OCC1 [Compound F88] |
| < 50 | < 50 | 0.1 to 1 | CC1(C)CCCC(N2CCNc3ccn4ncc(c4n3)-c3cc(F)cc(c3)OCC2)C1 (stereo not shown) [Compound F89] |
| < 50 | < 50 | < 0.1 | NC(=O)c1cc2cc(c1)-c1cnn3ccc(nc13)NCCN(C1COC1)CCO2 [Compound F91] |
| < 50 | < 50 | < 0.1 | CCCCN1CCNc2ccn3ncc(c3n2)-c2cc(cc(C(N)=O)c2)OCC1 [Compound F92] |
| > 50 | < 50 | 0.1 to 1 | CC1CNc2ccn3ncc(c3n2)-c2cccc(c2)OCC(=O)N1 (stereo not shown) [Compound F105] |
| – | – | 0.1 to 1 | O=C1COc2cncc(c2)-c2cnn3ccc(nc23)NCCCN1 [Compound F106] |
| – | – | 0.1 to 1 | CC1CNCCOc2cccc(c2)-c2cnn3ccc(nc23)N1 (stereo not shown) [Compound F108] |
